Source: ChEMBL document CHEMBL1201862, “PubChem BioAssay data set” (2004)
Calls of active or inactive are those of the source.

Tests used:
[1] = Luminescence-based counterscreen assay for KLF5 inhibitors: dose response cell-based high throughput screening assay to identify cytotoxic compounds using the IEC-6 intestinal epithelial cell line. [Related pubchem assays: 1700 (Primary screen.), 1834 (Confirmation screen.), 1858 (Summary AID.), 1905 (Counterscreen.)]; type: functional
[2] = target: Serine/threonine-protein phosphatase (Homo sapiens, UniProt Q9BPW0); experiment: PP5 phosphatase inhibitors, dose response, biochemical, fluorescence (AID 2395)
Chain of Serine/threonine-protein phosphatase (Q9BPW0 whole entry): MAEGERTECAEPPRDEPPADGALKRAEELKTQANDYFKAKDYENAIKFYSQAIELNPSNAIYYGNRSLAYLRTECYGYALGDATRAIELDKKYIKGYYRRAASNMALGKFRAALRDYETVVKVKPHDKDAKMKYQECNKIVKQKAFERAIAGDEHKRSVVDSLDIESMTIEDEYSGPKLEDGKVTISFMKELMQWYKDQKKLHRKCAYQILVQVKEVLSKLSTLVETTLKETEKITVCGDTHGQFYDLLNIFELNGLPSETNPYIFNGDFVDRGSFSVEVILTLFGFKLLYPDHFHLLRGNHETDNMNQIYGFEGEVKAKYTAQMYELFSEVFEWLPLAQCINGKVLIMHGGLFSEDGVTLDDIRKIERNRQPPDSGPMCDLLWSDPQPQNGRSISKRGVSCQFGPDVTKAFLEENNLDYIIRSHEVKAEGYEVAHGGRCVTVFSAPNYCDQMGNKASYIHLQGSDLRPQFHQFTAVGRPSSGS

[3] = target: T1, Microphthalmia-associated transcription factor (Homo sapiens, UniProt O75030); experiment: TRPM1 promoter luciferase signal decrease, dose response, MITF inhibitor project, cell-based, SK-MEL-5, cherry-picked, set 3 (AID 493073); type: functional
T1 sequence (O75030 whole entry): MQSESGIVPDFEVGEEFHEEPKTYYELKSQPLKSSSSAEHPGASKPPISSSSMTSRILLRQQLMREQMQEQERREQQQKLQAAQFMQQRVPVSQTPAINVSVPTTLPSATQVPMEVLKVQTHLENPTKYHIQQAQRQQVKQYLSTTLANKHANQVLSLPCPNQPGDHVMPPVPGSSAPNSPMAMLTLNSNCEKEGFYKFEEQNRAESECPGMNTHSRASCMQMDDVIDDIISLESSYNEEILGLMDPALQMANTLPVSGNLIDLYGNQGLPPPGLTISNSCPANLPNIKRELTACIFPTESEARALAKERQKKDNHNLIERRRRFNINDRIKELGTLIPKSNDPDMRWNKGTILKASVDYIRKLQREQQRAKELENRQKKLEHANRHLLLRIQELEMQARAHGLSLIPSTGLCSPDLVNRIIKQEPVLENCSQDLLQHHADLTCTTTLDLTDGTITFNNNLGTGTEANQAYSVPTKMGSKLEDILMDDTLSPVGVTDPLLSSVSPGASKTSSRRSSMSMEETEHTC

[4] = target: T2, Sentrin-specific protease 6 (Homo sapiens, UniProt Q9GZR1); type: functional;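 note: Luminescence-based dose-response confirmatory assay of SENP6 inhibition, following up an ultra-high-throughput screen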
T2 sequence (Q9GZR1 whole entry): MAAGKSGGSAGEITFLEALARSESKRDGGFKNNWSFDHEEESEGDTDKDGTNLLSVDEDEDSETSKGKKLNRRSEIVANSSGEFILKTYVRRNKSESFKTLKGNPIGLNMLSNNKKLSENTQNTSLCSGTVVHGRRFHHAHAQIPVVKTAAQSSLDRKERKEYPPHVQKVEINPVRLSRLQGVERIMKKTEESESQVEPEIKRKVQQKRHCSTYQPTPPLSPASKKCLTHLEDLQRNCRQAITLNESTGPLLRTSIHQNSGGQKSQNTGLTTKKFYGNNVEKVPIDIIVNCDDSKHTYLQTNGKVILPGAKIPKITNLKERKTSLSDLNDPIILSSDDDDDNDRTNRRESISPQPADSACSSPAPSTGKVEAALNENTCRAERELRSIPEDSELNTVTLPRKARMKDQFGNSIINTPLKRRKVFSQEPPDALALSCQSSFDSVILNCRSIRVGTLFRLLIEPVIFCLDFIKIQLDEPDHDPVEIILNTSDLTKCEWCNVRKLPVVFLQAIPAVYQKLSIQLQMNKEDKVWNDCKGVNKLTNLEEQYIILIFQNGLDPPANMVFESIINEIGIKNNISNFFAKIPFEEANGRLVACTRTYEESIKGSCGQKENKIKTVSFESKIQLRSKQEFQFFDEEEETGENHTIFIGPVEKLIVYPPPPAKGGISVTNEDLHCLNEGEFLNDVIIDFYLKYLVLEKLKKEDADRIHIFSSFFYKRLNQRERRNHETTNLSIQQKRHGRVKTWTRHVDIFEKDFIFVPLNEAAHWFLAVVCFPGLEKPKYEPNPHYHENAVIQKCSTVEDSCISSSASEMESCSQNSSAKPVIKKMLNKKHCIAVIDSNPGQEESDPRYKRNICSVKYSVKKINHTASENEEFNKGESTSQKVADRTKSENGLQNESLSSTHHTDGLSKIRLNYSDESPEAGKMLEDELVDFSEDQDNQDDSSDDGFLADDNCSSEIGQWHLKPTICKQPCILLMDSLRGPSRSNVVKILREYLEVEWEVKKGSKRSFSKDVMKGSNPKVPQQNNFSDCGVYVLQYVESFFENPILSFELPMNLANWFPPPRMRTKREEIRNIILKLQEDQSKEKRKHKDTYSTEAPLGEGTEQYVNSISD

[5] = target: T3, Endoribonuclease toxin MazF (Escherichia coli K-12, UniProt P0AE70); experiment: fluorescent RNA oligo signal without MazF, dose response, counter-screen for MazEF activator project, biochemical, fluorescence, single-stranded RNase substrate (AID 588502); type: functional
T3 sequence (P0AE70 whole entry): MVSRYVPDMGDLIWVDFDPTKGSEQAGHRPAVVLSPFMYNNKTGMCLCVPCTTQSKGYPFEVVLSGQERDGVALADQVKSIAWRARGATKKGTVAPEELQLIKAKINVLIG

What does the source list for `O=C1C(Nc2ccccc2)=C(N2CCCCC2)C(=O)c2ccccc21`?
IC50 [1]: > 39.8 µM (not active); IC50 [2]: > 67 µM (not active); AC50 [3]: 6.67 µM (active)

With `Oc1[nH]c2ccccc2c1N=Nc1ccc(F)cc1` as the compound, how does the IC50 [4] read?
The IC50 was 2.03 µM (active).

What about the EC50 [5] of the same compound?
The EC50 was > 99 µM (inactive).
